Molecules are shown by their SMILES. pIC50: −log10 of the molar value.

For this assay, the target named is NLRP3 inflammasome (Homo sapiens, UniProt Q96P20). The assay can be described thus: IL-1β assay in IFN-γ-differentiated, LPS-primed, ATP-activated THP-1 cells (ELISA). It is filed as cell-based. The conditions noted are these: 50 ng/mL LPS priming, 2.5 mM ATP activation, 2 hours. The protocol: Monocytic THP-1 cells (ATCC: TIB-202) are maintained in accordance with the provider's instructions in RPMI media (Life Technologies, Cat #A10491-01); RPMI is supplemented with 10% heat inactivated fetal bovine serum (Hyclone Cat #SH30396.03). The cells are differentiated into macrophages by the addition of 25 ng/mL IFN-7 (PeproTech, Cat #300-02-100UG) for 24 hours at 37° C./5% CO2. Media is exchanged with fresh media with no FBS, and the cells are treated with 50 ng/mL LPS (priming step) for 24 hours at 37° C./5% CO2 (LPS-EK: Invivogen, Cat #tlrl-peklps). Media is exchanged with fresh media with no FBS. The cells are plated at 40,000 cells per well in 384-well flat-bottom cell culture plates (Costar 3764) containing compounds (added in 1:1000) in a 1:3.16 serial dilution series in DMSO and are incubated for 30 minutes at 37° C./5% CO2. The NLRP3 inflammasome is activated with the addition of 2.5 mM ATP (Sigma Cat #A3377) and the cells are incubated for 2 hours at 37° C./5% CO2. At the end of the incubation period, 40 μL supernatant is removed, and […] are monitored using an ELISA (Human […], R&D systems, Cat #DY201) in accordance with the manufacturer's instructions.
Chain of NLRP3 inflammasome (Q96P20 whole entry): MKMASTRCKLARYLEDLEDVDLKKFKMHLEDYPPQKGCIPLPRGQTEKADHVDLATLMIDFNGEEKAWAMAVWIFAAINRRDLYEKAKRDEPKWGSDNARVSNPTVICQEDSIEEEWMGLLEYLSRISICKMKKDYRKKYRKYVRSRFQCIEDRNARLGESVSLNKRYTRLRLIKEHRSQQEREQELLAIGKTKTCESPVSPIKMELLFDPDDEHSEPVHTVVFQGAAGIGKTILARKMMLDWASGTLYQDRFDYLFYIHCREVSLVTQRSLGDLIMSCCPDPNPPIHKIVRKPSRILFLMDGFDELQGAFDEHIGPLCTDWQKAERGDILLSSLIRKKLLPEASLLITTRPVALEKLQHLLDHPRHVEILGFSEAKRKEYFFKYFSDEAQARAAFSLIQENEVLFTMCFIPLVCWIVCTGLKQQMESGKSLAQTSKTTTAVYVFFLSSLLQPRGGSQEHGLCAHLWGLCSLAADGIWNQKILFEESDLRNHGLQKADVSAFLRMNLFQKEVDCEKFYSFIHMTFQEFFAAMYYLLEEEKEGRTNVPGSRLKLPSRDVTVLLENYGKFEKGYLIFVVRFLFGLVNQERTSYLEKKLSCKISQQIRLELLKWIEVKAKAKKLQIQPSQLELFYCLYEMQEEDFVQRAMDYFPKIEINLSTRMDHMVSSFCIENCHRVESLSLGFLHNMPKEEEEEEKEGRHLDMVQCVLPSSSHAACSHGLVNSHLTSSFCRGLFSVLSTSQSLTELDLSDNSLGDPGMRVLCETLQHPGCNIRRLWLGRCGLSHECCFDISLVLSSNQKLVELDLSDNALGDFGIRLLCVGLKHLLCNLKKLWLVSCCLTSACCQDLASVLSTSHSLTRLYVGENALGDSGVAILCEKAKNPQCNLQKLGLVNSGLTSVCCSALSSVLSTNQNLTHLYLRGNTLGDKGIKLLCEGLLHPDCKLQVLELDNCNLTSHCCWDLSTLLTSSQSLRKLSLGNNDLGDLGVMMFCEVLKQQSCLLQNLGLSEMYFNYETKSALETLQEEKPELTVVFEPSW
The IC50 values are calculated from a plot of percentage of inhibition versus the inhibitor concentration by a logistics curve fit according to: Y=[Bottom+(Top−Bottom)]/(1+10^[(Log IC50−X)·Hill Slope], where Y is the % inhibition at the inhibitor concentration, X, “Bottom” is the lowest inhibition value, i.e. 0%, “Top” is the maximum inhibition value, i.e. 100%, and the “Hill Slope” describes the slope of the sigmoidal curve between the “Bottom” and “Top” values. The curve fitting was conducted with internally developed software.
Background: An ELISA detects its analyte on a solid surface through an enzyme-linked reagent.
For the compound `COc1ccc(-c2nnc(N[C@@H]3C[C@@H](F)CN(C)C3)c3cnccc23)c(F)c1` [Example 180, N-((3R,5R)-5-fluoro-1-methylpiperidin-3-yl)-1-(2-fluoro-4-methoxyphenyl)pyrido[3,4-d]pyridazin-4-amine], the pIC50 (as a rule, the negative decadic logarithm of the IC50, by convention in mol/L) is 6.87.

Take `Clc1ccc(-c2nnc(NC3CCN4CCC3C4)c3ccccc23)cc1` (centres unmarked) [Example 167, N-(1-azabicyclo[3.2.1]octan-4-yl)-4-(4-chlorophenyl)phthalazin-1-amine]: the negative-log IC50 (pIC50) is 5.47. On to `COc1ccc(-c2nnc(NCC3(N4CCCC4)CC3)c3ccccc23)cc1` [Example 131, 4-(4-methoxyphenyl)-N-((1-(pyrrolidin-1-yl)cyclopropyl)methyl)phthalazin-1-amine], for which the negative logarithm of the IC50 (pIC50) is 5.44. Regarding `F[C@H]1CNC[C@H](Nc2nnc(-c3ccc(Cl)cc3)c3ccncc23)C1` [Example 188, 1-(4-chlorophenyl)-N-((3R,5R)-5-fluoropiperidin-3-yl)pyrido[3,4-d]pyridazin-4-amine], the pIC50 is 6.16. This pIC50 lies 0.72 log units higher than the previous one. For the compound `COc1ccc(-c2nnc(Nc3cccc(O)c3)c3c2CCCC3)cc1` [Example 199, 3-((4-(4-methoxyphenyl)-5,6,7,8-tetrahydrophthalazin-1-yl)amino)phenol], the negative logarithm of the IC50 (pIC50) was 5.56. For `CN1CCCC(Nc2nnc(-c3ccc(Cl)cc3)c3ccncc23)C1` (centres unmarked) [Example 63, 1-(4-chlorophenyl)-N-(1-methylpiperidin-3-yl)pyrido[3,4-d]pyridazin-4-amine], the negative logarithm of the IC50 (pIC50) is 6.42. Next, `F[C@@H]1C[C@@H](Nc2nnc(-c3ccc(Cl)cc3)c3ccccc23)CN(C2CC2)C1` [Example 54, 4-(4-chlorophenyl)-N-((3R,5R)-1-cyclopropyl-5-fluoropiperidin-3-yl)phthalazin-1-amine]: 5.92; `Cc1cccc(-c2nnc(NC3CCCN(C)C3)c3ccccc23)c1` (centres unmarked) [Example 18, N-(1-methylpiperidin-3-yl)-4-(m-tolyl)phthalazin-1-amine]: 5.94.

The compound `CN1CCC[C@@H](Nc2nnc(-c3ccc(OC(F)F)cc3)c3ccncc23)C1` [Example 27, (R)-1-(4-(difluoromethoxy)phenyl)-N-(1-methylpiperidin-3-yl)pyrido[3,4-d]pyridazin-4-amine] showed a pIC50 of 7.42. Regarding `O[C@]1(C(F)(F)F)CCC[C@@H](Nc2nnc(-c3ccc(Cl)cc3)c3ccccc23)C1` [Example 116, (1R,3R)-3-((4-(4-chlorophenyl)phthalazin-1-yl)amino)-1-(trifluoromethyl)cyclohexan-1-ol], the negative logarithm of the IC50 (pIC50) is 6.04. The compound `CN1CC(Nc2nnc(-c3ccc(Cl)cc3)c3ccccc23)C(C)(C)C1` (centres unmarked) [Example 157, 4-(4-chlorophenyl)-N-(1,4,4-trimethylpyrrolidin-3-yl)phthalazin-1-amine] showed a negative logarithm of the IC50 (pIC50) of 5.34. `CN1CCCC(Nc2nnc(-c3ccc(F)cc3)c3ccccc23)C1` (centres unmarked) [Example 11, 4-(4-fluorophenyl)-N-(1-methylpiperidin-3-yl)phthalazin-1-amine]: the pIC50 is 6.03. Compound `CN1CCCC(Nc2nnc(-c3ccc(C(F)(F)F)nc3)c3ccccc23)C1` (centres unmarked) [Example 22, N-(1-methylpiperidin-3-yl)-4-(6-(trifluoromethyl)pyridin-3-yl)phthalazin-1-amine] had a pIC50 of 6.05. `CN1CCC[C@H](Nc2nnc(-c3ccc(Cl)cc3F)c3ccncc23)C1` [Example 70, (S)-1-(4-chloro-2-fluorophenyl)-N-(1-methylpiperidin-3-yl)pyrido[3,4-d]pyridazin-4-amine] gave a pIC50 of 5.70.

On to `C[C@]1(O)CC[C@H](Nc2nnc(-c3ccc(Cl)cc3)c3ccccc23)CC1` [Example 121, trans-4-((4-(4-chlorophenyl)phthalazin-1-yl)amino)-1-methylcyclohexan-1-ol], for which the negative logarithm of the IC50 (pIC50) is 5.40. As to `Clc1ccc(-c2nnc(NC3CN4CCC3C4)c3ccccc23)cc1` (centres unmarked) [Example 166, N-(1-azabicyclo[2.2.1]heptan-3-yl)-4-(4-chlorophenyl)phthalazin-1-amine], the negative-log IC50 (pIC50) is 5.48. This pIC50 and that of the compound before are within 0.2 log units of each other. For the compound `CO[C@H]1C[C@@H](Nc2nnc(-c3ccc(Cl)cc3)c3ccccc23)C1` [Example 134, 4-(4-chlorophenyl)-N-(cis-3-methoxycyclobutyl)phthalazin-1-amine], the pIC50 is 5.64. For `Oc1cccc(Nc2nnc(-c3cccc(C4CC4)c3)c3ccccc23)c1` [Example 10, 3-((4-(3-cyclopropylphenyl)phthalazin-1-yl)amino)phenol], the pIC50 is 6.36.

`CN(C)C1CC(Nc2nnc(-c3ccc(Cl)cc3)c3ccccc23)C1` (centres unmarked) [Example 149, Ni-(4-(4-chlorophenyl)phthalazin-1-yl)-N^3,N^3-dimethylcyclobutane-1,3-diamine] showed a pIC50 of 5.48. Turning to `CN1CCCC(Nc2nnc(-c3ccc(C(F)(F)F)cc3)c3ccccc23)C1` (centres unmarked) [Example 13, N-(1-methylpiperidin-3-yl)-4-(4-(trifluoromethyl)phenyl)phthalazin-1-amine], the negative-log IC50 (pIC50) was 7.19. This pIC50 lies 1.71 log units higher than the previous one. The result for `COc1ccc(-c2nnc(N[C@@H]3C[C@@H](F)CN(C4CC4)C3)c3ccccc23)cc1` [Example 55, N-((3R,5R)-1-cyclopropyl-5-fluoropiperidin-3-yl)-4-(4-methoxyphenyl)phthalazin-1-amine] reads 6.24; that for `CN1CCC[C@@H](Nc2nnc(-c3ccc(O)cc3)c3ccncc23)C1` [Example 23, (R)-4-(4-((1-methylpiperidin-3-yl)amino)pyrido[3,4-d]pyridazin-1-yl)phenol], 5.00; that for `FC(F)CN1CCC(Nc2nnc(-c3ccc(Cl)cc3)c3ccccc23)C1` (centres unmarked) [Example 170, 4-(4-chlorophenyl)-N-(1-(2,2-difluoroethyl)pyrrolidin-3-yl)phthalazin-1-amine], 5.67.

Compound `CN1CCCC(Nc2nnc(-c3ccc(Cl)cc3)c3c2CN(C2CC2)CC3)C1` (centres unmarked) [Example 103, 1-(4-chlorophenyl)-6-cyclopropyl-N-(1-methylpiperidin-3-yl)-5,6,7,8-tetrahydropyrido[3,4-d]pyridazin-4-amine] had a negative-log IC50 (pIC50) of 5.44. The compound `Cc1cc(Cl)ccc1-c1nnc(NC2CCCN(C)C2)c2ccncc12` (centres unmarked) [Example 50, 4-(4-chloro-2-methylphenyl)-N-(1-methylpiperidin-3-yl)pyrido[3,4-d]pyridazin-1-amine] gave a pIC50 of 5.88. As to `CC(C)c1ccc(-c2nnc(Nc3cccc(O)c3)c3ccccc23)cc1` [Example 7, 3-((4-(4-isopropylphenyl)phthalazin-1-yl)amino)phenol], the pIC50 is 6.01.

Compound `FC(F)(F)CN1CCCC(Nc2nnc(-c3ccc(Cl)cc3)c3ccccc23)C1` (centres unmarked) [Example 147, 4-(4-chlorophenyl)-N-(1-(2,2,2-trifluoroethyl)piperidin-3-yl)phthalazin-1-amine] showed a negative-log IC50 (pIC50) of 5.83. `CN1CCCC(Nc2nnc(-c3ccc(Cl)cc3F)c3cnccc23)C1` (centres unmarked) [Example 69, 4-(4-chloro-2-fluorophenyl)-N-(1-methylpiperidin-3-yl)pyrido[3,4-d]pyridazin-1-amine] showed a pIC50 of 6.08. In the case of `C[C@]1(O)C[C@H](Nc2nnc(-c3ccc(Cl)cc3)c3ccccc23)C1` [Example 119, trans-3-((4-(4-chlorophenyl)phthalazin-1-yl)amino)-1-methylcyclobutan-1-ol], the negative-log IC50 (pIC50) was 5.56.

Regarding `FC1(F)CNCC(Nc2nnc(-c3ccc(Cl)cc3)c3ccccc23)C1` (centres unmarked) [Example 191, 4-(4-chlorophenyl)-N-(5,5-difluoropiperidin-3-yl)phthalazin-1-amine], the negative logarithm of the IC50 (pIC50) is 5.89. For the compound `CN1CC(Nc2nnc(-c3ccc(Cl)cc3)c3ccccc23)CC(F)(F)C1` (centres unmarked) [Example 108, 4-(4-chlorophenyl)-N-(5,5-difluoro-1-methylpiperidin-3-yl)phthalazin-1-amine], the pIC50 was 5.50.

`CN1CCc2c(NC3CCCN(C)C3)nnc(-c3ccc(Cl)cc3)c2C1` (centres unmarked) [Example 99, 4-(4-chlorophenyl)-6-methyl-N-(1-methylpiperidin-3-yl)-5,6,7,8-tetrahydropyrido[3,4-d]pyridazin-1-amine] had a negative-log IC50 (pIC50) of 5.69. On to `COc1ccc(-c2nnc(NC3CCN(C)C3)c3ccccc23)cc1` (centres unmarked) [Example 126, 4-(4-methoxyphenyl)-N-(1-methylpyrrolidin-3-yl)phthalazin-1-amine], for which the negative-log IC50 (pIC50) is 5.59. Compound `COc1cc(F)ccc1-c1nnc(N[C@@H]2C[C@@H](F)CN(C)C2)c2cnccc12` [Example 181, N-((3R,5R)-5-fluoro-1-methylpiperidin-3-yl)-1-(4-fluoro-2-methoxyphenyl)pyrido[3,4-d]pyridazin-4-amine] had a pIC50 of 6.00. The compound `CN1CCCC(Nc2nnc(-c3ccc(Cl)cc3)c3cnccc23)C1` (centres unmarked) [Example 62, 4-(4-chlorophenyl)-N-(1-methylpiperidin-3-yl)pyrido[3,4-d]pyridazin-1-amine] had a pIC50 of 5.45.
